12 compounds from US20250144127A1, “LONG-CHAIN COMPOUND AND USE THEREOF” (Burgeon Therapeutics Co., Ltd., priority 2021, published 2025) can be followed below.

Each structure is given as a SMILES string.

The target in series [1] is T1, Human-derived ACLY protein (Homo sapiens, UniProt P53396).
T1 construct: purchased Beijing Yiqiao Shenzhou Technology Co., Ltd 11769-H07B
T1 sequence (P53396 1-1101): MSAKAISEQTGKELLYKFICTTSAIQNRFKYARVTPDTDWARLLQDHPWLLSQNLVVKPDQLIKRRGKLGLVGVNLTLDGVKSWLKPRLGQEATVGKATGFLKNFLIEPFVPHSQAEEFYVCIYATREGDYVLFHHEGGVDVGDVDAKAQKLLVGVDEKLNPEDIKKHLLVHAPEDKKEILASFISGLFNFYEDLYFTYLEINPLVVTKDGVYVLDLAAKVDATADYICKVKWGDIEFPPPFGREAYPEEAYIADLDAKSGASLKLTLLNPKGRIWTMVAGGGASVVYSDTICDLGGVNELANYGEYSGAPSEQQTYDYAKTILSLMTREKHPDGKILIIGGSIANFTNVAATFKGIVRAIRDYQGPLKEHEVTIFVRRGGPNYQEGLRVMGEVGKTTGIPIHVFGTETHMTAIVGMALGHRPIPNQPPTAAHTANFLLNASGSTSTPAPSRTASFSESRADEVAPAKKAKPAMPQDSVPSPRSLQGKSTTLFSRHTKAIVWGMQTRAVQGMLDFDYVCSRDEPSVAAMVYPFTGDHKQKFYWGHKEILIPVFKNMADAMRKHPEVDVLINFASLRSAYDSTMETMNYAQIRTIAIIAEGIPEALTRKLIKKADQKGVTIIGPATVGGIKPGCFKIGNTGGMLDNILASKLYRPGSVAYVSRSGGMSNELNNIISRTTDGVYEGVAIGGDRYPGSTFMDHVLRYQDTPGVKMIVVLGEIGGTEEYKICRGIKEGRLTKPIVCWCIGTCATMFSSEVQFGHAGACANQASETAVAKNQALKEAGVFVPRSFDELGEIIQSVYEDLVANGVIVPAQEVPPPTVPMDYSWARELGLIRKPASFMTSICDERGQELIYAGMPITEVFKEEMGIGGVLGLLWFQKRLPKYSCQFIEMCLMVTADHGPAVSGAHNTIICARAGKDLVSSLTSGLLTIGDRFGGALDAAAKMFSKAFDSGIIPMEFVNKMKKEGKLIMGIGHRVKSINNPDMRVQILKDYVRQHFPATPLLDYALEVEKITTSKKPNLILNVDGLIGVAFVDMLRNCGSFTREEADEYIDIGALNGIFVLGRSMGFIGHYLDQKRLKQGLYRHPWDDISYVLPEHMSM
Nature of the series: ACLY citrate cleavage enzyme inhibition, ADP-Glo assay. It counts as biochemical. Particulars: 25 nM enzyme, 30 min, 37° C., read-out: IC50 for inhibition of ACLY enzyme activity (mean ± SD). An excerpt: The ACLY-catalyzed citric acid cleavage process requires the consumption of one molecule of ATP to activate citric acid. Based on this reaction principle, the inventors utilized an ADP-Glo assay kit to detect the amount of ATP converted to ADP in response to the catalytic activity of ACLY. After the establishment of the activity measurement system and optimization of the reaction conditions, the inventors evaluated the ACLY inhibitory activity of the obtained novel ACLY small molecule inhibitors.
Activity test protocol: Human-derived ACLY protein was purchased from Beijing Yiqiao Shenzhou Technology Co., Ltd (Item No. 11769-H07B), and ADP-Glo assay kit was purchased from Promega (Item No. V9102). The total volume of the reaction was 5 μL, which consisted of a mixture of three parts: 1 μL of 2% DMSO, 2 μL of the substrate mixture, and 2 μL of the enzyme (final concentration of 25 nM). Then 1 μL of different concentrations of compounds were added for incubation. Reaction conditions: 30 min, 37° C. Then 2.5 μL of ADP Reagent from ADP-Glo Kit was used, mixed well and reacted for 2 h. 5 μL of ADP Detection was added, centrifuged and mixed well. Then the full wavelength value was read from Envision multifunctional plate reader.
Results: Firstly, the cumulative amount of fluorescence intensity of the enzyme in 30 min reaction time (RFU/min) was calculated to represent the initial velocity of the enzyme, and then the ratio of the enzyme's velocity with the addition of compounds (vsample) to the enzyme's velocity without the addition of compounds (vDMSO) was calculated to be the percentage of activity for each concentration group of the samples (Activity rate %), with the formula: % Activity=(V(sample)/(v(DMSO))×100%. The logarithmic value of the concentration was plotted against the activity percentage, and then a non-linear regression was used to calculate the fitted curve. The software GraphPad Prism 8.0 (formula log (inhibitor) vs. response—Variable slope) was used to fit the curve and calculate the IC50 value, and the results are shown in the table below.
A general note: ADP-Glo first removes unused ATP, then detects ADP through luciferase.

The subject of series [2] is primary mouse hepatocytes. Nature of the series: Inhibition of de novo lipid synthesis in primary hepatocytes, [1,2-14C]-sodium acetate tracer. It counts as cell-based. To be noted: Hepatocyte, compound 12.5 μM, 4 h, [1,2-14C]-acetate, read-out: Lipid synthesis inhibition (%) (mean ± SD). How it is done: Primary hepatic cell isolation and walling: the mouse liver was lavaged by calcium-free perfusate, then digested using collagenase and mouse primary hepatocytes were obtained by density gradient centrifugation, and were inoculated in 6-well plates at a density of 3×10^5/ml (0.2% gelatin was coated before inoculating). After inoculating, the cells were cultured and adhered for 6 h. The medium was changed to serum-free LG-DMEM (containing 2× double antibody) and starved the cells overnight.
Isotope tracing: the next day, the medium was switched to serum-free LG-DMEM containing 10 nM insulin and the corresponding concentration of compounds (1950 μL, 4 replicate wells per group); 0.1 μCi of [1,2-^14C]-acetate serum-free medium was added to each well, and the plates were then incubated for 4 h in the incubator.
Lipid saponification: Add 1.6 mL of ice PBS to each well for washing 3 times, shake the plate to dry and add 600 μL of 0.5 M KOH to each well to lysis for 1 h. Pipette 480 μL into a glass test tube with 400 μL of 20% KOH (methanol was used as solvent), shake and mix well, and then place it in a water bath at 95° C. to saponify for 3 h. The remaining lysate was used for the determination of the concentration of proteins. Add 400 μL of petroleum ether to each tube, pipette 5-6 times and centrifuge at 2500 rpm for 5 min, take 350 μL of the upper layer of the clear solution to the EP tube, and then add 400 μL of petroleum ether to repeat the extraction for 2 times (a total of 3 times). After complete transfer of the supernatant, 200 μL of water and 400 μL of 5N sulfuric acid were added to each tube for acidification, and the mixture was shaken and mixed. Add 400 μL of petroleum ether to each tube, pipette 5-6 times and centrifuge at 2500 rpm for 5 min, take 350 μL of the upper layer of the clear solution to the EP tube, then add 400 μL of petroleum ether and repeat the extraction for 2 times (a total of 3 times). Place in a fume hood and evaporate the petroleum ether overnight.
Isotope participation quantification: 1700 μL of scintillation solution was added to each tube and read.
Data processing and analysis: Firstly, the isotopic reference (R control, unit: CCPM/mg protein) of free fatty acids and cholesterol was calculated for the Control group of untreated mouse primary hepatocytes within 4 hours, which represented the basal synthesis. The percent inhibition of lipid synthesis was then calculated for each concentration group of the sample.

For the next series, the system named is golden hamster. Description: High-fat and high-cholesterol diet-induced hyperlipidemia model of golden hamster. To be noted: for serum LDL cholesterol / serum total cholesterol: 1 time/day, 7 days, vs control group. It counts as in vivo. An excerpt: Dosing regimen: The hyperlipidemia model of golden hamster is recognized as one of the ideal animal models for studying hyperlipidemia drug therapy (pharmacodynamic evaluation). In order to preliminarily investigate the existence of potential regulatory effects of the candidate compounds on hepatic lipid metabolism homeostasis, the high-fat and high-cholesterol diet-induced hyperlipidemia model of golden hamster was utilized for preliminary pharmacodynamic evaluation. The specific protocol was as follows. 56 golden hamsters, males, were modeled on high-fat and high-cholesterol diet (Research diet, item number C11953) for two weeks, and 8 golden hamsters were reserved as blank control group. Subsequently, group administration (7 groups, n=8) was performed, i.e., model control group, positive control ETC-1002 30 mg/kg group, compound A3 10 mg/kg and 30 mg/kg group, compound A4 10 mg/kg and 30 mg/kg group, and blank control group. The compounds in each group were configured with saline (0.9% NaCl) and administered at a frequency of 1 time/day for a 7-day dosing cycle.
Indicator test: The body weight and food intake of golden hamsters were closely monitored during the administration period. After 7 days of administration, blood was collected from the orbital region of each group (starved overnight for about 16 hours), centrifuged to obtain serum, and stored in cryopreservation, and then total cholesterol and LDL cholesterol were detected in the serum. The relative amount of the relevant indexes was calculated as follows: Relative amount (100%)=the amount in the administered group/the amount in the model control group*100%.

In series [3] the test system is primary hepatocytes from WT mice. Description: De novo lipid synthesis in WT primary hepatocytes, [14C]-citric acid tracer. It counts as cell-based. To be noted: WT mouse hepatocytes, [14C]-citric acid substrate.
Series [4] concerns ACLY knockdown primary hepatocytes. Description: De novo lipid synthesis in ACLY knockdown primary hepatocytes, [14C]-citric acid tracer. Particulars: [14C]-citric acid substrate. Type of series: cell-based, mouse. The text has this: Test protocol: In order to further investigate the dependence of the inhibitory effect of the series of compounds on de novo lipid synthesis on ACLY, the inventors chose ACLY knockdown primary hepatocytes for further evaluation of de novo lipid synthesis, while compound ETC-1002 was used as a positive control. Specifically, the experimental protocol was as above, and 0.1 μCi/well [^14C]-citric acid was used for tracing.

A short description of series [5]: Oral pharmacokinetics in ICR mice. Type of series: in vivo, mouse. To be noted: male, mouse, ICR mice, oral, 30 mg/kg, plasma. As for the experimental part: Dosing regimen: 6 normal ICR mice, male, were divided into 2 groups (n=3), one group was orally given the positive control ETC-1002, and one group was orally given the tested compound A3, both administered at a dose of 30 mg/kg; blood was taken from the eye orbits at different time points before and after the administration of the drug, and the plasma drug concentration was detected.

[6] abbreviates: golden hamster, during administration.

Consider `CC(C)(CCCC/C=C/CCCCC(C)(C)C(=O)O)C(=O)O` [Compound A1], for which the IC50 (commonly the midpoint of a concentration-inhibition curve) in series [1] was determined as 42.3 ± 6.5 µM.

`CC(C)(CCCC/C=C\CCCCC(C)(C)C(=O)O)C(=O)O` [Compound A2]: the IC50 in series [1] was found to be 105 ± 7.1 µM. In addition, the inhibition (commonly the drop in the measured response relative to a control, in per cent) at 12.5 µM in series [2] is 80.9 ± 5.9%.

In the case of `CC(C)(CCCC/C=C\CCCCCC(C)(C)C(=O)O)C(=O)O` [Compound A4], in series [1], the IC50 turned out to be 53.9 ± 13.8 µM. The inhibition at 12.5 µM in series [2] was 78.2 ± 4.3%. In the series with golden hamster (10 mg/kg), the “serum LDL cholesterol” value is given as “did not change significantly” and the serum total cholesterol result is on record as “did not change significantly”. In addition, in the series with golden hamster (30 mg/kg), the “serum LDL cholesterol” value is “significantly reduce” and the serum total cholesterol entry is given as “significantly reduce”. In the series on golden hamster (setting [6]), the body weight result is “significant decrease”, the food intake result is “significant decrease” and the tolerance observation result is listed as “intolerance phenomena such as slowed activity”.

`CC(C)(CCCCC/C=C/CCCCCC(C)(C)C(=O)O)C(=O)O` [Compound A5]: the IC50 in series [1] is 16.7 ± 1.8 µM. The inhibition at 12.5 µM in series [2] came out at 56.6 ± 7.6%.

In the case of `CC(C)(CCCCC/C=C\CCCCCC(C)(C)C(=O)O)C(=O)O` [Compound A6], the IC50 in series [1] is 25.5 ± 6.8 µM. In series [2], the inhibition at 12.5 µM came out at 68.7 ± 20.9%.

Take `CC(C)(CCCCC/C=C/CCCCCCC(C)(C)C(=O)O)C(=O)O` [Compound A7]: the IC50 in series [1] is 12 ± 2.2 µM.

For the compound `CC(C)(CCCCC/C=C\CCCCCCC(C)(C)C(=O)O)C(=O)O` [Compound A8], in series [1], the IC50 was found to be 21.3 ± 9.7 µM. Further, in series [2], the inhibition at 12.5 µM was 21.6 ± 1.3%.

For the compound `CC(C)(CCCCCC/C=C/CCCCCCC(C)(C)C(=O)O)C(=O)O` [Compound A9], in series [1], the IC50 is 25.8 ± 9.2 µM. For the same compound, the inhibition at 12.5 µM in series [2] amounted to 30.9 ± 4.2%.

In the case of `CC(C)(CCCCCC/C=C\CCCCCCC(C)(C)C(=O)O)C(=O)O` [Compound A10], the IC50 in series [1] amounted to 9.6 ± 5.1 µM. For the same compound, the inhibition at 12.5 µM in series [2] was 21.1 ± 11.7%.

Turning to `C/C(CCCCCC(C)(C)C(=O)O)=C(\C)CCCCC(C)(C)C(=O)O` [Compound A11], the IC50 in series [1] was 40.2 ± 2.9 µM.

On to `CC(C)(CCCCCC1CC1CCCCC(C)(C)C(=O)O)C(=O)O` (stereo not shown) [Compound A12], for which the IC50 in series [1] was determined as 56.9 ± 4.7 µM. Besides, the inhibition at 12.5 µM in series [2] came out at 38.7 ± 11.4%.

Consider `CC(C)(CCCCCC(O)CCCCCC(C)(C)C(=O)O)C(=O)O` [ETC-1002, Bempedoic acid, reference compound], for which, in series [2], the inhibition at 12.5 µM is 46.3 ± 15.3%. Further, the “de novo synthesis of triglycerides” value in series [3] (FIG. 1 A) is recorded as “significantly inhibited”. In series [3] (FIG. 1 B), the “de novo synthesis of cholesterol” value was “significantly inhibited”. Besides, in series [4], the “inhibitory effect on de novo synthesis of cholesterol” value is given as “significantly attenuated or even the inhibitory effect was not manifested” and the “inhibitory effect on de novo synthesis of triglycerides” value is recorded as “significantly attenuated or even the inhibitory effect was not manifested”. Also, in series [5], the AUC(0-inf) – broadly, total exposure, with the tail of the curve extrapolated – came to 15600 ng·h/mL; the AUC(0-t) – broadly, the area under the concentration-time curve up to a stated or last time point – stood at 14400 ng·h/mL; the Cmax (as a rule, the highest concentration seen after dosing) was determined as 3810 ng/mL; the Tmax (in general, the time at which the peak concentration occurs) was 0.25 h. The half-life – broadly, how long it takes for the measured level to halve – in series [5] was 4.45 h. Also, the MRT inf in series [5] (read-out: MRT0-∞) came out at 6.81 h.
